This note sets out measurements from US8501936B2 (priority 2009, dated 2013).

Read-outs that look alike come from different tables or passages of the source.

Assay [1] has as its target T1, human JAK2 (Homo sapiens (Human), UniProt O60674). Kind of assay: biochemical.
For assay [2], the target named is T2, human FAK (Homo sapiens (Human), UniProt Q05397). Kind of assay: biochemical.
The target of assay [3] is T2, human FAK. As to conditions: read-out: FAK IC50.
Assay [4] deals with T1, human JAK2. The settings on record: read-out: JAK2 IC50.

T2 sequence (Q05397 whole entry): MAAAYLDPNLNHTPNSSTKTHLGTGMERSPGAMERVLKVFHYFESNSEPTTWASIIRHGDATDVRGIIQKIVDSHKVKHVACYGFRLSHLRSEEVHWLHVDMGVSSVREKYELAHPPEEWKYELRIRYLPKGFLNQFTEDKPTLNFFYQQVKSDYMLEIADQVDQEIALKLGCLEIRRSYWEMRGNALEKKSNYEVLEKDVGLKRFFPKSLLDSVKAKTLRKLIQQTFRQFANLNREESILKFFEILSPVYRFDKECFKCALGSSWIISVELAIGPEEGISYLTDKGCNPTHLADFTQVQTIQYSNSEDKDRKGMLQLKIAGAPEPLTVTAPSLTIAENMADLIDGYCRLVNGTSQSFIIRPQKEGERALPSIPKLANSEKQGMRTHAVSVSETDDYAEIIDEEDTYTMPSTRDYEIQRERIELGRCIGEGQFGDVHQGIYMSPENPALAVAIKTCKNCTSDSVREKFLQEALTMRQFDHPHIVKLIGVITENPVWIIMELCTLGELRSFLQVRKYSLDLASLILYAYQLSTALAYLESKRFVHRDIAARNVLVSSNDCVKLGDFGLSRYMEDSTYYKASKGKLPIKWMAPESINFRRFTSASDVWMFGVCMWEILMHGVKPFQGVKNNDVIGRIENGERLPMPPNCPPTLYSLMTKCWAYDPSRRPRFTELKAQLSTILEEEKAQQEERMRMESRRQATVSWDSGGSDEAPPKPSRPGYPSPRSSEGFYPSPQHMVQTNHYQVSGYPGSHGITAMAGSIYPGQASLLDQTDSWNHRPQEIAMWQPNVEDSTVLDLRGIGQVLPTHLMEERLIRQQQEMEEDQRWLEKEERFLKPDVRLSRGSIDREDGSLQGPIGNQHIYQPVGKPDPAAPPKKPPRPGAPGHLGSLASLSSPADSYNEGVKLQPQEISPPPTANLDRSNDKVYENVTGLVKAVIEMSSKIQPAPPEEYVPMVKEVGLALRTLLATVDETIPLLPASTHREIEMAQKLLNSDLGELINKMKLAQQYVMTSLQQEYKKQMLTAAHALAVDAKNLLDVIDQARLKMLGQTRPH
T1 sequence (O60674 815-1132): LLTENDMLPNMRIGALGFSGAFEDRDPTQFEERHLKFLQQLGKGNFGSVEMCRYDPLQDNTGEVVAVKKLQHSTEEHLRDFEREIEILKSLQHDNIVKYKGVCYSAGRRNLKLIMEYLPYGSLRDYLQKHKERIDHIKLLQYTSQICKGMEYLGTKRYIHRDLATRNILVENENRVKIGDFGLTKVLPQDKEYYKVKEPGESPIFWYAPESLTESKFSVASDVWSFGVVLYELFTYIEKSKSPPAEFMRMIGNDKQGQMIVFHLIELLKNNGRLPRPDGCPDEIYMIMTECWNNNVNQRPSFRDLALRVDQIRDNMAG

A word on the IC50: it is the concentration needed to halve the response being measured. As to `CS(=O)(=O)c1ccc(-c2cccn3nc(Nc4cccc([C@@H]5CCNC[C@@H]5O)c4)nc23)cc1` (racemic) [Example 188, (±)-(cis)-4-{3-[8-(4-Methanesulfonyl-phenyl)-[1,2,4]triazolo[1,5-a]pyridin-2-ylamino]-phenyl}-piperidin-3-ol], the IC50 amounted to 0.00143 µM in assay [1] and 1.94 µM in assay [2].

As to `CS(=O)(=O)c1ccc(-c2cccn3nc(Nc4cccc(N5CCC(N6CCOCC6)CC5)c4)nc23)cc1` [Example 57, [8-(4-Methanesulfonyl-phenyl)-[1,2,4]triazolo[1,5-a]pyridin-2-yl]-[3-(4-morpholin-4-yl-piperidin-1-yl)-phenyl]-amine], the results for the half-maximal inhibitory concentration (IC50) in assay [3] and in assay [1] were 1.18 µM and 0.0005 µM, respectively.

For the compound `COc1ccccc1CNc1cccn2nc(Nc3ccc(C)nc3)nc12` [Example 403, N(8)-(2-Methoxy-benzyl)-N(2)-(6-methyl-pyridin-3-yl)-[1,2,4]triazolo[1,5-a]pyridine-2,8-diamine], the results for the IC50 in assay [3] and in assay [4] were 1.88 µM and 0.0276 µM, respectively.

With `COc1ccccc1CNc1cccn2nc(Nc3ccnc(C)c3)nc12` [Example 404, N(8)-(2-Methoxy-benzyl)-N(2)-(2-methyl-pyridin-4-yl)-[1,2,4]triazolo[1,5-a]pyridine-2,8-diamine], the concentration for half-maximal inhibition (IC50) was determined as 2.58 µM in assay [3] and 0.0247 µM in assay [4].

Regarding `COc1cccc(CNc2cccn3nc(Nc4ccc(C)nc4)nc23)c1` [Example 405, N(8)-(3-Methoxy-benzyl)-N(2)-(6-methyl-pyridin-3-yl)-[1,2,4]triazolo[1,5-a]pyridine-2,8-diamine], the IC50 in assay [3] came out at 10 µM; in assay [4], 1.02 µM.

`CS(=O)(=O)c1ccc(-c2cccn3nc(NCCc4ccccn4)nc23)cc1` [Example 406, [8-(4-Methanesulfonyl-phenyl)-[1,2,4]triazolo[1,5-a]pyridin-2-yl]-(2-pyridin-2-yl-ethyl)-amine]: the IC50 in assay [3] and in assay [4] was 10 µM throughout.

For `CS(=O)(=O)c1ccc(-c2cccn3nc(NCCc4cccnc4)nc23)cc1` [Example 407, [8-(4-Methanesulfonyl-phenyl)-[1,2,4]triazolo[1,5-a]pyridin-2-yl]-(2-pyridin-3-yl-ethyl)-amine], the concentration for half-maximal inhibition (IC50) in assay [3] turned out to be 10 µM; in assay [4] it was 1.98 µM.

Regarding `CS(=O)(=O)c1ccc(-c2cccn3nc(NCc4cccnc4)nc23)cc1` [Example 408, [8-(4-Methanesulfonyl-phenyl)-[1,2,4]triazolo[1,5-a]pyridin-2-yl]-pyridin-3-ylmethyl-amine], the values for the half-inhibitory concentration (IC50) in assay [3] and in assay [4] were 10 µM and 2.76 µM, respectively.

Regarding `CS(=O)(=O)c1ccc(-c2cccn3nc(NCc4ccccn4)nc23)cc1` [Example 409, [8-(4-Methanesulfonyl-phenyl)-[1,2,4]triazolo[1,5-a]pyridin-2-yl]-pyridin-2-ylmethyl-amine], the half-inhibitory concentration (IC50) was determined as 10 µM in assay [3] and 6.5 µM in assay [4].

For `CCN1CCP(=O)(c2ccc(Nc3nc4c(-c5ccc(S(C)(=O)=O)cc5)cccn4n3)cc2)CC1` [Example 411, N-[4-(1-ethyl-4-oxido-1,4-azaphosphinan-4-yl)phenyl]-8-[4-(methylsulfonyl)phenyl][1,2,4]triazolo[1,5-a]pyridin-2-amine], the half-inhibitory concentration (IC50) in assay [3] was 1.86 µM; in assay [4], 0.00162 µM.
